These results are taken from paper PMC5614969, “High-Affinity Functional Fluorescent Ligands for Human β-Adrenoceptors” (Scientific Reports, 2017).

For assay [1], the target named is T1, β2AR (Homo sapiens, UniProt P07550). Briefly: cAMP FRET sensor (TEpacVV) agonist assay in HEK 293 cells. The conditions noted are these: for intracellular cAMP level: addition of probe to the cells, 60 min at room temperature (Suppl. Fig. 13). It counts as cell-based. On the procedure: Upon cAMP binding, the sensor undergoes a conformational change resulting in a decrease of the FRET efficiency between two fluorescent proteins: mTurquoise - a version of cyan fluorescent protein (CFP) as the donor, and yellow fluorescent protein (YFP) as the acceptor (Fig. 3a).
T1 sequence (P07550 whole entry): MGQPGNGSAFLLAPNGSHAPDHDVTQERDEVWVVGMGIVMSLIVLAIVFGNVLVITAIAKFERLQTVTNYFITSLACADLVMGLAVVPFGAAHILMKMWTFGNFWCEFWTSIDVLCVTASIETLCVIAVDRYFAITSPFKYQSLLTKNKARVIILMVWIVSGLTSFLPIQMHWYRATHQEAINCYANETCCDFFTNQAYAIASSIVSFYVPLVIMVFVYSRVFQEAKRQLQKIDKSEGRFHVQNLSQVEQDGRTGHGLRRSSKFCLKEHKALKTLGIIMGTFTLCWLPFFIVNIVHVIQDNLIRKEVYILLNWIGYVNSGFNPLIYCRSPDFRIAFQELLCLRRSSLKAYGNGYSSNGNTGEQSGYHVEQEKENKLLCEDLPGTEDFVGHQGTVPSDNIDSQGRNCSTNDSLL
The intracellular cyclic adenosine monophosphate (cAMP) levels were determined with HEK 293 cells expressing a 3′,5′-cAMP FRET sensor. The cells were a generous gift from Ruud Hovius from École poly-technique fédérale de Lausanne (EPFL). The cAMP production induces a conformational switch in ^TEpac^VV and causes a decrease in FRET efficiency, i.e. a decreased energy transfer between the two fluorescent proteins (donor mTurquoise and acceptor YFP)[32].
The culture was maintained by subculturing the cells every 4 to 5 days using the standard trypsinization procedure. Before measurements, cells were trypsinated and transferred in a 96-well glass bottom plate (MatTek Corporation; Cat. No. P96GC-1.5–5-F) to contain 10,000–30,000 cells per well in 200 µL of DMEM media. After 24 h incubation in 5% CO2 at 37 °C, the cells were washed with HBSS pH 7.2 (200 µL), and the wells were filled with 200 µL HBSS. The DMSO stock solutions of the fluorescent probes were diluted 5,000 times in HBSS and used in experiments. […] The fluorescent ligand solutions of different concentrations in HBSS were premixed with the isoprenaline solution. 50 µL of a final solution was added to each well and the measurement was started upon addition and continued for 1 h in 10 min intervals between the readouts (inclusive).
The ligands were added using an automated pipette to initiate the sensor response. FRET readout from the cAMP sensor was performed on a multiwell plate reader Spark 20 M (Tecan) at room temperature (25 °C). Fluorescence readout amplitudes were calculated from time series for different ligand concentrations, following background subtraction (media only). […] Data were derived from 3 independent experiments and each independent experiment was performed in triplicate.
Sensor response R(CFP/FRET) was calculated using (1):1 R(CFP/FRET)=(FimTurquoise−FbkgmTurquoise)/(FiFRET−FbkgFRET) where F i ^mTurquoise – mTurquoise fluorescence intensity in the wells with cells; F bkg ^mTurquoise - mTurquoise fluorescence intensity in the control wells without cells; F i ^FRET – FRET signal intensity in the wells with cells; F bkg ^FRET – FRET signal intensity in the control wells without cells. For every result, R(CFP/FRET) ratio was normalized to the R(CFP/FRET) response of DMSO sample.

Assay [2] deals with T1, β2AR. Briefly: Staining and competitive binding in CAPAN-1 cells at endogenous β2AR expression. The conditions noted are these: for receptor staining: 100 nM probe; for competitive binding with excess unlabeled ligand: 100 nM probe (5 nM ab118171) with 10 µM BI-167107 or carazolol. It counts as cell-based. How it is done: To study the selectivity of β2AR staining at the endogenous expression levels, which are much lower compared to those in transiently β2AR expressing U2OS cells, we tested the performance of BI-167107 probes in pancreatic CAPAN-1 cells (Fig. 7c–f). […] Low density of β2AR in the plasma membrane of CAPAN-1 cells allowed us to measure of the lateral resolution in the STED images. When the cells were incubated with 100 nM BI-PEG-KK114 (18) ligand, we observed two-fold improvement in the resolution resulting in apparent structures of ~100 nm (Fig. 7d; Supplementary Table 4).
For staining of CAPAN-1 cells, fluorescent probes or mixtures of a probe and a competitor were incubated in McCoy’s 5a Medium Modified supplemented with 10% fetal bovine serum (FBS) for 30–40 min at room temperature. Afterwards, the samples were washed two times with HBSS, and cells were imaged in DMEM (Thermo Fisher Scientific) supplemented with GlutaMAX-1 (Thermo Fisher Scientific) and 10% fetal bovine serum (FBS). Imaging performed on Leica SP8 (Leica Microsystems) or Abberior STED (Abberior Instruments GmbH) microscopes.

The target of assay [3] is β1AR (Homo sapiens, UniProt P08588). The assay is described as follows: TR-FRET receptor-ligand saturation binding assay, Tag-lite β1AR cells. The conditions noted are these: 2 h at room temperature, read-out: Kd app. How it is done:
To confirm whether the affinity of carazolol-KK114 (24) is sufficient for the intended imaging experiments and to evaluate its β2/β1AR selectivity, we performed a TR-FRET assay in Tag-lite β1AR or β2AR transfected cells (Cisbio) labeled with Tb^3+ cryptate (Lumi4-Tb) (Fig. 3c)[39]. […] (Fig. 3d, Supplementary Fig. 5b). The high affinities of both fluorescent ligands enabled the imaging experiments.
K d determination was performed on Tag-lite β1AR (Cisbio, Cat. No. C1TT1BETA1) or β2AR (Cisbio, Cat. No. C1TT1BETA2) Tb^3+ cryptate labeled transfected cells. The β1AR or β2AR cells labeled with SNAP-Terbium interact with the specific ligand labeled with the corresponding fluorophore. […] 20 µl of a fluorescent probe or control compound in Tag-lite buffer was added to each well and incubated for 2 h at room temperature (20 °C) before readout. FRET readout was performed on a multiwell plate reader Spark 20 M (Tecan) at room temperature. […] The ratio of the acceptor and donor emission signals was calculated for each individual well using equation (3):3 Ratio=Signal655nm−BackgroundSignal/Signal620nm−BackgroundSignal
Luminescence background signal was measured in wells containing 40 µl of Tag-lite buffer only. Specific binding was calculated by subtracting nonspecific binding ratio from total binding ratio at each fluorescent ligand concentration. […]

Molecules are shown by their SMILES.

β1AR, sequence (P08588 whole entry): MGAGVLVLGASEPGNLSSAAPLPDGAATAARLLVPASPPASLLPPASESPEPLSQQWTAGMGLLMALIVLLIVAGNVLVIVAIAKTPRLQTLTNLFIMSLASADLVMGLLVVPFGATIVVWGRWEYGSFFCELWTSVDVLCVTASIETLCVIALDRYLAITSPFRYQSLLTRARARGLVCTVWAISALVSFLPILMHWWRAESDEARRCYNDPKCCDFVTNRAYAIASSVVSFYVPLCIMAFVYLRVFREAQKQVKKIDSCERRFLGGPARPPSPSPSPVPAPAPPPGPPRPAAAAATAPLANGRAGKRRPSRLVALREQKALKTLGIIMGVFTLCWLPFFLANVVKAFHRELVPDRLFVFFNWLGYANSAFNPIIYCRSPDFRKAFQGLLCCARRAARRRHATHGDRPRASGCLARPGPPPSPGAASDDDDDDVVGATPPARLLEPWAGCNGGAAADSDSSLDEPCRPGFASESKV

With `CN(CCC(=O)NCCOCCOCCOCCOCCC(=O)NCCC(C)(C)NCC(O)COc1cccc2[nH]c3ccccc3c12)C(=O)c1c(F)c(F)c(F)c(F)c1C1=c2cc3c4c(c2Oc2c1cc1c5c2CCCN5C(C)(C)C=C1CS(=O)(=O)O)CCC[N+]=4C(C)(C)C=C3CS(=O)(=O)[O-]` (centres unmarked) [Carazolol-KK114 (24)], the “intracellular cAMP level” value in assay [1] was “did not change”. Besides, in assay [2], the receptor staining entry is “plasma membrane localized receptor staining” and the “competitive binding with excess unlabeled ligand” value is “efficiently displaced”.

For the compound `Cc1c(CCC(=O)NCCOCCOCCNC(=O)CCN(C)C(=O)c2c(F)c(F)c(F)c(F)c2C2=c3cc4c5c(c3Oc3c2cc2c6c3CCCN6C(C)(C)C=C2CS(=O)(=O)O)CCC[N+]=5C(C)(C)C=C4CS(=O)(=O)[O-])cccc1CC(C)(C)NCC(O)c1ccc(O)c2c1OCC(=O)N2` (centres unmarked) [BI-PEG-KK114 (18)], the EC50 in assay [1] (HEK 293 expressing 3′,5′-cAMP FRET sensor, 30 min incubation, room temperature, read-out: EC50 (mean ± SD)) came out at 0.0057 ± 0.0022 µM. Further, the “intracellular cAMP level” value in assay [1] was “induces intracellular cAMP level increase”. Also, the Kd in assay [3] is 0.0634 ± 0.0066 µM. In addition, in assay [2], the receptor staining result is given as “plasma membrane localized receptor staining” and the “competitive binding with excess unlabeled ligand” value is “no background fluorescence”.
